Experiments:
[1] = system: normal primary NK cells, pool 1 (3 donors), resting (IL-2 0 ng/mL); experiment: drug sensitivity score (DSS) (DSS units); higher = more sensitive; extreme values may be limits of the assay; conditions: 72 h
YT (IL-2 2.5 ng/mL) [2] = experiment: as above; conditions: 72 h
DERL-7 (IL-2 2.5 ng/mL) [3] = experiment: as above; conditions: 72 h
KAI3 (IL-2 2.5 ng/mL) [4] = experiment: as above; conditions: 72 h
IMC-1 (IL-2 20 ng/mL) [5] = experiment: as above; conditions: 72 h
[6] = system: normal primary NK cells, pool 1 (3 donors) (IL-2 2.5 ng/mL); experiment: as above; conditions: 72 h
[7] = system: normal primary NK cells, pool 2 (3 donors) (IL-2 2.5 ng/mL); experiment: as above; conditions: 72 h
NK-92 (IL-2 2.5 ng/mL) [8] = experiment: as above; conditions: 72 h
NKL (IL-2 2.5 ng/mL) [9] = experiment: as above; conditions: 72 h
[10] = system: normal primary NK cells, pool 3 (3 donors) (IL-2 2.5 ng/mL); experiment: as above; conditions: 72 h
SNK-6 (IL-2 2.5 ng/mL) [11] = experiment: as above; conditions: 72 h
KHYG-1 (IL-2 2.5 ng/mL) [12] = experiment: as above; conditions: 72 h
NK-YS (IL-2 2.5 ng/mL) [13] = experiment: as above; conditions: 72 h
[14] = system: normal primary NK cells, pool 1 (3 donors), resting (IL-2 0 ng/mL); experiment: percent inhibition of viability; higher = more inhibition; conditions: 72 h
YT (IL-2 2.5 ng/mL) [15] = experiment: as above; conditions: 72 h
DERL-7 (IL-2 2.5 ng/mL) [16] = experiment: as above; conditions: 72 h
KAI3 (IL-2 2.5 ng/mL) [17] = experiment: as above; conditions: 72 h
IMC-1 (IL-2 20 ng/mL) [18] = experiment: as above; conditions: 72 h
[19] = system: normal primary NK cells, pool 1 (3 donors) (IL-2 2.5 ng/mL); experiment: as above; conditions: 72 h
[20] = system: normal primary NK cells, pool 2 (3 donors) (IL-2 2.5 ng/mL); experiment: as above; conditions: 72 h
NK-92 (IL-2 2.5 ng/mL) [21] = experiment: as above; conditions: 72 h
NKL (IL-2 2.5 ng/mL) [22] = experiment: as above; conditions: 72 h
[23] = system: normal primary NK cells, pool 3 (3 donors) (IL-2 2.5 ng/mL); experiment: as above; conditions: 72 h
SNK-6 (IL-2 2.5 ng/mL) [24] = experiment: as above; conditions: 72 h
KHYG-1 (IL-2 2.5 ng/mL) [25] = experiment: as above; conditions: 72 h
NK-YS (IL-2 2.5 ng/mL) [26] = experiment: as above; conditions: 72 h
[27] = system: normal NK cells expanded with K562-aAPC; experiment: drug sensitivity score (DSS) (DSS units); higher = more sensitive; extreme values may be limits of the assay; conditions: 72 h; IL-2 2.5 ng/mL
Method: (§1)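 Drug sensitivity and resistance testing on K562-aAPC-expanded normal NK cells: 5 concentrations (10-fold steps over a 10,000-fold range), 72 h at 37 °C, viability by CellTiter-Glo normalised to DMSO and benzethonium chloride controls; DSS from the fitted curve.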

[28] = system: normal NK cells expanded with K562-aAPC; experiment: percent inhibition of viability; higher = more inhibition; conditions: 72 h, IL-2 2.5 ng/mL
Method: as §1

C=CCNC1=C2C[C@@H](C)C[C@H](OC)[C@H](O)[C@@H](C)/C=C(\C)[C@H](OC(N)=O)[C@@H](OC)/C=C\C=C(/C)C(=O)NC(=CC1=O)C2=O [Tanespimycin] (max concentration tested 10000 nM)
Conditions | drug sensitivity score
DERL-7 (IL-2 2.5 ng/mL) [3] | 23
IMC-1 (IL-2 20 ng/mL) [5] | 18.4
KAI3 (IL-2 2.5 ng/mL) [4] | 25.3
KHYG-1 (IL-2 2.5 ng/mL) [12] | 19.3
NK-92 (IL-2 2.5 ng/mL) [8] | 23.1
NK-YS (IL-2 2.5 ng/mL) [13] | 25.4
NKL (IL-2 2.5 ng/mL) [9] | 25
SNK-6 (IL-2 2.5 ng/mL) [11] | 21.6
YT (IL-2 2.5 ng/mL) [2] | 19.1
[1] | 14
[6] | 22.4
[7] | 19.2
[10] | 16
[27] | 22.6

percent inhibition of viability [%]
Conditions | 1 nM | 10 nM | 100 nM | 1000 nM | 10000 nM
DERL-7 (IL-2 2.5 ng/mL) [16] | 0.9 | -1.85 | 35.9 | 101 | 101
IMC-1 (IL-2 20 ng/mL) [18] | -1.67 | 0.76 | 3.61 | 99.8 | 101
KAI3 (IL-2 2.5 ng/mL) [17] | 0.55 | 5.14 | 60.9 | 104 | 105
KHYG-1 (IL-2 2.5 ng/mL) [25] | -4.47 | 0.32 | 7.33 | 103 | 106
NK-92 (IL-2 2.5 ng/mL) [21] | -11.8 | -0.27 | 37.7 | 99.1 | 100
NK-YS (IL-2 2.5 ng/mL) [26] | -3.46 | -0.46 | 63.4 | 103 | 105
NKL (IL-2 2.5 ng/mL) [22] | -8.98 | -11.1 | 73.2 | 91.9 | 91.2
SNK-6 (IL-2 2.5 ng/mL) [24] | 3.74 | -19.1 | 41.6 | 87.7 | 89.8
YT (IL-2 2.5 ng/mL) [15] | -5.76 | -8.38 | 13.2 | 94.7 | 101
[14] | -6.62 | 18.1 | 28.8 | 51.2 | 69.4
[19] | 1.58 | 12.9 | 49.5 | 87.4 | 92.3
[20] | -2.56 | 2.25 | 36.4 | 80 | 85.7
[23] | -2.89 | -1.44 | 15.4 | 76.7 | 89.1
[28] | -6.12 | -2.4 | 32.3 | 99.3 | 100

Source: the supplement of paper PMC5908809
